Laboratory results from US20230019094A1, “NOVEL COMPOUND AND PHARMACEUTICAL COMPOSITION FOR PREVENTION OR TREATMENT OF CANCER COMPRISING SAME” (HOLOSMEDIC, priority 2019, published 2023).

How the values were obtained:
Format in all cases: cell-based
SKOV3-TR [1] = assay: Crystal violet staining, cell survival rate and cell count, resistant line; conditions: 3 days; for anticancer-enhancing effect of doxetaxel, optical density at 570 nm (crystal violet) / anticancer-enhancing effect of paclitaxel, optical density at 570 nm (crystal violet): S-form 0.5 μM or 2 μM pretreated 4 hours; for anticancer-enhancing effect of doxetaxel, optical density at 570 nm (crystal violet): then 0.9 μM doxetaxel, compared to doxetaxel+ethanol group; for anticancer-enhancing effect of paclitaxel, optical density at 570 nm (crystal violet): then 4 μM paclitaxel, compared to paclitaxel+ethanol group; for optical density at 570 nm (crystal violet), anticancer drug alone: 4 μM paclitaxel or 0.9 μM doxetaxel, compared to None or DMSO-treated groups
Procedure: (§1) The two cancer cell lines growing on a 12-well plate were pretreated with 102 S-forms at a low concentration (0.5 μM) and a high concentration (2 μM) for 4 hours, and the SKOV3-TR cell line was then treated with 4 μM paclitaxel, and the SKOV3 cell line was treated with 0.05 μM paclitaxel. For the morphological analysis of the cells, the cells treated with None (a group that was treated with nothing), DMSO (a paclitaxel solvent), ethanol (EtOH) (an S-form solvent), DMSO+EtOH, paclitaxel, paclitaxel+ethanol (Pacli+EtOH), and 102 S-forms were analyzed after 1, 2, and 3 days, and images were captured. For cellular metabolism analysis, WST-1 analyses were performed after 3 days of the combined treatment with paclitaxel and S-forms. The cell survival rates were analyzed on the same experimental groups using a crystal violet staining method.
(§2) The two cell lines growing on a 12-well plate were pretreated with an S-form at a low concentration (0.5 μM) and a high concentration (2 μM) for 4 hours, and the SKOV3-TR cell line was then treated with 0.9 μM doxetaxel, and the SKOV3 cell line was treated with 0.5 μM doxetaxel. For the morphological analysis of the cells, the cells treated with None (a group that was treated with nothing), DMSO (a doxetaxel solvent), ethanol (EtOH) (an S-form solvent), DMSO+EtOH, doxetaxel, doxetaxel+ethanol (Doxetaxel+EtOH), and S-forms were analyzed after 1, 2, and 3 days, and images were captured. For cellular metabolism analysis, WST-1 analyses were performed after 3 days of the combined treatment with doxetaxel and S-forms. The cell survival rates were analyzed on the same experimental groups using a crystal violet staining method.
Based on the crystal violet staining in which the cell survival rates and the cell counts were analyzed, a decrease in cell counts in SKOV3-TR and SKOV3 by treatment with paclitaxel was induced through a decrease in cell survival rate. […] The crystal violet staining results of SKOV3-TR by treatment with paclitaxel are shown in FIG. 11, and the crystal violet staining results of SKOV3 are shown in FIG. 12. The crystal violet staining results of SKOV3-TR by treatment with doxetaxel are shown in FIG. 25, and the crystal violet staining results of SKOV3 are shown in FIG. 26.
The optical densities at 570 nm were reduced with the decreasing cell counts in the paclitaxel-treated groups due to the phenomena such as the induction of cell death and the inhibition of cell growth in SKOV3-TR and SKOV3, compared to the None or DMSO-treated groups. […] Also, it can be seen that the dose-response relationship was satisfied because a decrease in cell survival rate by paclitaxel in SKOV3-TR was further promoted at a high concentration (2 μM) of the S-forms as compared to a low concentration (0.5 μM) of the S-forms. For the purpose of analysis, images of the 102 experimental groups after the cell lines were stained with crystal violet were captured after 3 days of the treatment. The staining degree was determined by ELISA by measuring the optical densities at 570 nm through dye elution as in the WST-1 analysis. During the ELISA analysis, the baseline was applied to the optical density of the paclitaxel+ethanol (Pacli+EtOH)-treated group as the control group. The optical density results of SKOV3-TR by treatment with the 102 S-forms and the optical density results of SKOV3 by treatment with the 102 S-forms are shown in FIGS. 13 to 20.
The optical densities at 570 nm were reduced with the decreasing cell counts in the doxetaxel-treated groups due to the phenomena such as the induction of cell death and the inhibition of cell growth in SKOV3-TR and SKOV3, compared to the None or DMSO-treated groups. […] Also, it can be seen that the dose-response relationship was satisfied because a decrease in cell survival rate by doxetaxel in SKOV3-TR was further promoted at a high concentration (2 μM) of the S-forms as compared to a low concentration (0.5 μM) of the S-forms. […]

SKOV3 [2] = assay: WST-1 analysis of cellular metabolism, parental line; conditions: 0.05 μM paclitaxel or 0.5 μM doxetaxel, 3 days, compared to None or DMSO-treated groups
Procedure: (§3) A cell experiment was performed on an epithelial ovarian cancer cell line SKOV3 and SKOV3-TR which is derived therefrom and produced as a resistant cancer cell line to having resistance to the anticancer drug paclitaxel.
as §1, with “For cellular metabolism analysis, WST-1 analyses were performed after 3 days of the combined treatment with paclitaxel and S-forms.” left out
(§4) The two cell lines growing on a 12-well plate were pretreated with an S-form at a low concentration (0.5 μM) and a high concentration (2 μM) for 4 hours, and the SKOV3-TR cell line was then treated with 0.9 μM doxetaxel, and the SKOV3 cell line was treated with 0.5 μM doxetaxel. […] The cell survival rates were analyzed on the same experimental groups using a crystal violet staining method. […]

SKOV3 [3] = assay: Crystal violet staining, cell survival rate and cell count, parental line; conditions: 0.05 μM paclitaxel or 0.5 μM doxetaxel, 3 days, compared to None or DMSO-treated groups
Procedure: as §1, with “For cellular metabolism analysis, WST-1 analyses were performed after 3 days of the combined treatment with paclitaxel and S-forms.” left out
as §2, with “For cellular metabolism analysis, WST-1 analyses were performed after 3 days of the combined treatment with doxetaxel and S-forms. The cell survival rates were analyzed on the same experimental groups using a crystal violet staining method.” left out

SKOV3-TR [4] = assay: WST-1 analysis of cellular metabolism, resistant line; conditions: 4 μM paclitaxel or 0.9 μM doxetaxel, 3 days, compared to None or DMSO-treated groups
Procedure: as §3
as §1, with “For cellular metabolism analysis, WST-1 analyses were performed after 3 days of the combined treatment with paclitaxel and S-forms.” left out
as §4

Row | SMILES | anticancer-enhancing effect of doxetaxel, optical density at 570 nm (crystal violet) (SKOV3-TR [1]) | anticancer-enhancing effect of paclitaxel, optical density at 570 nm (crystal violet) (SKOV3-TR [1]) | optical density at 450 nm (WST-1), anticancer drug alone (SKOV3 [2]) | optical density at 570 nm (crystal violet), anticancer drug alone (SKOV3 [3]) | optical density at 450 nm (WST-1), anticancer drug alone (SKOV3-TR [4]) | optical density at 570 nm (crystal violet), anticancer drug alone (SKOV3-TR [1])
1 | CCc1sc2ccccc2c1CN1CCN2C(=O)C(C3CCCCC3)NC(=O)C2C1 (stereo not drawn) [S105] | exhibited the anticancer-enhancing effect | exhibited the anticancer-enhancing effect |  |  |  | 
2 | CCc1sc2ccccc2c1CN1CCN2C(=O)CNC(=O)C2C1 (stereo not drawn) [S101, 2-((2-ethylbenzothiophene-3-yl)methyl)hexahydro-2H-pyrazino[1,2-a]pyrazine-6,9-dione] | exhibited the anticancer-enhancing effect | exhibited the anticancer-enhancing effect |  |  |  | 
3 | CC(=O)O[C@@]12CO[C@@H]1C[C@H](O)[C@@]1(C)C(=O)[C@H](O)C3=C(C)[C@@H](OC(=O)[C@H](O)[C@@H](NC(=O)OC(C)(C)C)c4ccccc4)C[C@@](O)([C@@H](OC(=O)c4ccccc4)[C@H]21)C3(C)C [doxetaxel] |  |  | reduced | reduced | reduced | reduced
4 | CC(=O)O[C@H]1C(=O)[C@@]2(C)[C@H]([C@H](OC(=O)c3ccccc3)[C@]3(O)C[C@H](OC(=O)[C@H](O)[C@@H](NC(=O)c4ccccc4)c4ccccc4)C(C)=C1C3(C)C)[C@]1(OC(C)=O)CO[C@@H]1C[C@@H]2O [paclitaxel] |  |  | reduced | reduced | reduced | reduced
